Experiments:
[1] = test system: JAK2, TYK2/p-STAT4 (Tyr693) activated by IL-12 in NK-92 cell line; test: IL-12-JAK2, TYK2/p-STAT4 (Tyr693) inhibition IC50 cellular assay; format: cell-based; details: NK92, Cellular assay; read-out: pSTAT4/IL-12 IC50
Outline: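 NK-92 cells were starved overnight without IL-2 and preincubated 1 h at 37° C with compound (8 doses, 10000–0.61 nM, 4-fold, 0.2% DMSO). They were then stimulated with IL-12 (40 ng/ml final) for 30 min. Lysate p-STAT4 (Tyr693) was read by AlphaLISA SureFire; IC50 from four-parameter logistic fit.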

pSTAT5/GM-CSF = pSTAT5/GM-CSF cellular assay (JAK2 selectivity); format: cell-based; details: for Selectivity fold (TYK2/JAK2): pSTAT5/GM-CSF IC50 over pSTAT4/IL-12 IC50
[2] = biological target: T1, TYK2-JH2 (aa 575-869, in-house) protein (Homo sapiens, UniProt P29597); test: TYK2-JH2 biochemical assay (HTRF probe displacement); format: binding; details: Biochemical assay; read-out: TYK2-JH2 IC50
T1 construct: TYK2-JH2 (aa 575-869, in-house) protein; made in house
T1 sequence (P29597 575-869): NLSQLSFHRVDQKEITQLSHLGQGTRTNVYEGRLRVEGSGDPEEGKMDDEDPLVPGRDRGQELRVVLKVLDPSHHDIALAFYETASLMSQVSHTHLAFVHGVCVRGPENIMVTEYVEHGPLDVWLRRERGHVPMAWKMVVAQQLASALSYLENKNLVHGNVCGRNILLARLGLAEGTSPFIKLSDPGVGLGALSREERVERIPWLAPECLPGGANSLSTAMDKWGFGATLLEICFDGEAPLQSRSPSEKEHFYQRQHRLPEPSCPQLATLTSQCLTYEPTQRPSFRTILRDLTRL
Outline: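 Recombinant TYK2-JH2 (0.2 nM) was pre-incubated 0.5 h at room temperature with compounds (10 doses, 5-fold dilution; 500× DMSO stocks from 500 uM) in 20 mM HEPES pH 7.5, 10 mM MgCl2, 0.005% BSA, 2 mM DTT, 0.015% Brij-35. Probe displacement was read by HTRF (ex337, em620/665 nm); IC50 from four-parameter logistic fit.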

| IC50 [1] [nM] | IC50 (pSTAT5/GM-CSF) [nM] | IC50 [2] [nM] | SMILES | Selectivity fold (TYK2/JAK2) (pSTAT5/GM-CSF) [fold] |
| --- | --- | --- | --- | --- |
| 0.398 | > 10000 | 0.028 | CC(=O)Nc1cc(Nc2cc(OC3CCCC3)cc(S(C)(=O)=O)n2)c(-c2ccn(C)n2)cn1 [Example J45, N-(4-((4-(cyclopentyloxy)-6-(methylsulfonyl)pyridin-2-yl)amino)-5-(1-methyl-1H-pyrazol-3-yl)pyridin-2-yl)acetamide] | >25125 |
| 2.35 | > 10000 | 0.033 | CC(=O)Nc1cc(Nc2cc(OC3CCOC3)cc(S(C)(=O)=O)n2)c(-c2ccn(C)n2)cn1 (stereo not shown) [Example J46, N-(5-(1-methyl-1H-pyrazol-3-yl)-4-((6-(methylsulfonyl)-4-((tetrahydrofuran-3-yl)oxy)pyridin-2-yl)amino)pyridin-2-yl)acetamide] | >4255 |
| 4.73 | > 10000 | 0.037 | CC(=O)Nc1cc(Nc2cc(OC[C@@H](C)O)cc(S(C)(=O)=O)n2)c(-c2ccn(C)n2)cn1 [Example J47, (R)-N-(4-((4-(2-hydroxypropoxy)-6-(methylsulfonyl)pyridin-2-yl)amino)-5-(1-methyl-1H-pyrazol-3-yl)pyridin-2-yl)acetamide] | >2114 |
| 70.2 | > 10000 | 0.035 | CC(=O)Nc1cc(Nc2cc(OCC(O)CO)cc(S(C)(=O)=O)n2)c(-c2ccn(C)n2)cn1 (stereo not shown) [Example J48, N-(4-((4-(2,3-dihydroxypropoxy)-6-(methylsulfonyl)pyridin-2-yl)amino)-5-(1-methyl-1H-pyrazol-3-yl)pyridin-2-yl)acetamide] | >1421411 |
| 1.43 | > 10000 | 0.021 | CC(=O)Nc1cc(Nc2cc(C(F)(F)F)cc(S(C)(=O)=O)n2)c(-c2ccn(C)n2)cn1 [Example J52, N-(5-(1-methyl-1H-pyrazol-3-yl)-4-((6-(methylsulfonyl)-4-(trifluoromethyl)pyridin-2-yl)amino)pyridin-2-yl)acetamide] | >699 |

The remaining lines, values behind:

| SMILES | IC50 [1] [nM] | IC50 (pSTAT5/GM-CSF) [nM] | IC50 [2] [nM] | Selectivity fold (TYK2/JAK2) (pSTAT5/GM-CSF) [fold] |
| --- | --- | --- | --- | --- |
| CC(=O)Nc1cc(Nc2cc(OC3CCC3)cc(S(C)(=O)=O)n2)c(-c2ccn(C)n2)cn1 [Example J44, N-(4-((4-cyclobutoxy-6-(methylsulfonyl)pyridin-2-yl)amino)-5-(1-methyl-1H-pyrazol-3-yl)pyridin-2-yl)acetamide] | 0.358 | > 10000 | 0.022 | >27932 |
| COc1ccc(Nc2cc(NC(C)=O)ncc2-c2ccn(C)n2)nc1S(C)(=O)=O [Example J50, N-(4-((5-methoxy-6-(methylsulfonyl)pyridin-2-yl)amino)-5-(1-methyl-1H-pyrazol-3-yl)pyridin-2-yl)acetamide] | 27.7 | > 10000 | 0.049 | >361 |
| CC(=O)Nc1cc(Nc2ccc(C)c(S(C)(=O)=O)n2)c(-c2ccn(C)n2)cn1 [Example J51, N-(5-(1-methyl-1H-pyrazol-3-yl)-4-((5-methyl-6-(methylsulfonyl)pyridin-2-yl)amino)pyridin-2-yl)acetamide] | 1.58 | > 10000 | 0.043 | >6329 |
| CCS(=O)(=O)c1cc(OC(C)C)cc(Nc2cc(NC(C)=O)ncc2-c2ccn(C)n2)n1 [Example J53, N-(4-((6-(ethylsulfonyl)-4-isopropoxypyridin-2-yl)amino)-5-(1-methyl-1H-pyrazol-3-yl)pyridin-2-yl)acetamide] | 3.47 | > 10000 | 0.033 | >2881 |
| CC(=O)Nc1cc(Nc2ccc(F)c(S(C)(=O)=O)n2)c(-c2ccn(C)n2)cn1 [Example J54, N-(4-((5-fluoro-6-(methylsulfonyl)pyridin-2-yl)amino)-5-(1-methyl-1H-pyrazol-3-yl)pyridin-2-yl)acetamide] | 2.03 | > 10000 | 0.028 | >4926 |
